Assay results reported in paper PMC11520566, “Discovery of pyrazole-based analogs as CDK2 inhibitors with apoptotic-inducing activity: design, synthesis and molecular dynamics study” (RSC Advances, 2024).

Columns and labels:
[1] = tested on: ACHN; experiment: NCI 60 five dose assay, Renal cancer; type: cell-based, human
[2] = tested on: HCT-116 cells; experiment: Flow cytometry cell cycle analysis; type: cell-based; conditions: 1.806 μM
Procedure: Cell cycle analysis was conducted to explore the mechanism and the mode of action of the newly synthesized compounds as anticancer agents, typically inducing cytotoxicity by activating signaling pathways that trigger apoptosis.[35] […] Compound 4 was further subjected to cell cycle analysis following the established protocols.[35]
The cell cycle analysis protocol was performed on compound 4 on HCT-116 cells. This test is based on the content of DNA measured by staining using propidium iodide. Initially, the cells were washed in PBS before being kept at 4 °C for 3 min dropwise using the vortex addition of cold 70% ethanol to avoid cell clumping and to ensure fixation as well. Then, […] of a stock of […] ribonuclease was added to selectively stain only DNA. Finally, […] of a stock solution of […] of propidium iodide was added.[35]

[3] = tested on: RXF 393; experiment: NCI 60 five dose assay, Renal cancer; type: cell-based, human
[4] = tested on: SF-295; experiment: NCI 60 single dose screen, CNS cancer; type: cell-based, human; conditions: single dose 10 μM
Procedure: (§1) The newly synthesized pyrazoles 2a–g, 7a–d, 8a and b, 9, and 10 were submitted to the National Cancer Institute (NCI) Developmental Therapeutics Program (http://www.dtp.nci.nih.gov) for assessment of their potential antiproliferative activity against a panel of NCI 60 cancer cell lines. All compounds were approved for screening against the approved 60 cancer cell lines at a single dose of 10 μM. The human cancer cell lines were derived from 9 variant cancer types including leukemia, melanoma, lung, colon, CNS, ovarian, renal, prostate and breast cancers. The results are presented as percentage of growth inhibition (GI%) of the screened compounds against the full panel of cell lines.
(§2) Under sterile conditions, the cell lines were grown in RPMI 1640 media (Gibco, NY, USA) supplemented with 10% fetal bovine serum (Biocell, CA, USA), and […] cell/mL was used to test the growth inhibition activity of the synthesized compounds. The compounds with concentrations ranging from 0.01 to 100 μM were prepared in phosphate buffer saline. Each compound was initially solubilized in dimethyl sulfoxide (DMSO); however, each final dilution contained less than 1% DMSO. Solutions of different concentrations (0.2 mL) were pipetted into the separate well of a microtiter tray in duplicate. […] After 48 h, the cells in each well were diluted 10 times with saline and counted using a Coulter counter. […]

[5] = tested on: SF-268; experiment: NCI 60 single dose screen, CNS cancer; type: cell-based, human; conditions: single dose 10 μM
Procedure: as §1, §2

[6] = tested on: KM12; experiment: NCI 60 five dose assay, Colon cancer; type: cell-based, human
[7] = tested on: COLO 205; experiment: NCI 60 five dose assay, Colon cancer; type: cell-based, human
[8] = tested on: SNB-19; experiment: NCI 60 five dose assay, CNS cancer; type: cell-based, human
[9] = tested on: LOX IMVI; experiment: NCI 60 five dose assay, Melanoma; type: cell-based, human
[10] = tested on: HT29; experiment: NCI 60 five dose assay, Colon cancer; type: cell-based, human
[11] = tested on: A549/ATCC; experiment: NCI 60 five dose assay, Non-small cell lung cancer; type: cell-based, human
[12] = tested on: OVCAR-3; experiment: NCI 60 five dose assay, Ovarian cancer; type: cell-based, human
[13] = tested on: HCT-116; experiment: NCI 60 five dose assay, Colon cancer; type: cell-based, human
[14] = tested on: SW-620; experiment: NCI 60 five dose assay, Colon cancer; type: cell-based, human
[15] = tested on: U251; experiment: NCI 60 five dose assay, CNS cancer; type: cell-based, human
[16] = Homo sapiens, read-out: LC50 (the source's name)

Question: Which results are given for CC(=NNc1ccc(S(N)(=O)=O)cc1)c1ccc(NN=C2C(=O)NN=C2Nc2ccccc2)cc1 [Compound 4, 4-(2-(1-(4-(2-(5-oxo-3-(phenylamino)-1,5-dihydro-4H-pyrazol-4-ylidene)hydrazinyl)phenyl)ethylidene)hydrazinyl)benzene sulfonamide]?
Answer: GI50 ([1]; Homo sapiens): 5.9 µM; CC50 [1, 16]: 43 µM; Percent Growth ([1]; Log10 Concentration -4.0 Molar): -100%; Percent Growth ([1]; Log10 Concentration -5.0 Molar): 36%; Percent Growth ([1]; Log10 Concentration -6.0 Molar): 96%; Percent Growth ([1]; Log10 Concentration -7.0 Molar): 104%; Percent Growth ([1]; Log10 Concentration -8.0 Molar): 94%; cell cycle result [2]: apoptotic cell growth arrest occurring at the G1 phase; %G2/M ([2]; control 6.82): 3.79%; %S ([2]; control 33.81): 23.05%; %G0/G1 ([2]; control 59.37): 73.16%; cell cycle result ([2]; listed as cpd4): cell growth arrest@ G1; GI50 ([3]; Homo sapiens): 1.1 µM; CC50 [3, 16]: 21.1 µM; Percent Growth ([3]; Log10 Concentration -4.0 Molar): -76%; Percent Growth ([3]; Log10 Concentration -5.0 Molar): -37%; Percent Growth ([3]; Log10 Concentration -6.0 Molar): 54%; Percent Growth ([3]; Log10 Concentration -7.0 Molar): 99%; Percent Growth ([3]; Log10 Concentration -8.0 Molar): 103%; GI% [4]: 94.88%; GI% [5]: 90.67%; GI50 ([6]; Homo sapiens): 2.66 µM; CC50 [6, 16]: 29.9 µM; Percent Growth ([6]; Log10 Concentration -4.0 Molar): -100%; Percent Growth ([6]; Log10 Concentration -5.0 Molar): -5%; Percent Growth ([6]; Log10 Concentration -6.0 Molar): 90%; Percent Growth ([6]; Log10 Concentration -7.0 Molar): 101%; Percent Growth ([6]; Log10 Concentration -8.0 Molar): 98%; GI50 ([7]; Homo sapiens): 3.28 µM; CC50 [7, 16]: 34.6 µM; Percent Growth ([7]; Log10 Concentration -4.0 Molar): -100%; Percent Growth ([7]; Log10 Concentration -5.0 Molar): 9%; Percent Growth ([7]; Log10 Concentration -6.0 Molar): 94%; Percent Growth ([7]; Log10 Concentration -7.0 Molar): 105%; Percent Growth ([7]; Log10 Concentration -8.0 Molar): 101%; GI50 ([8]; Homo sapiens): 2.59 µM; CC50 [8, 16]: 29.6 µM; Percent Growth ([8]; Log10 Concentration -4.0 Molar): -100%; Percent Growth ([8]; Log10 Concentration -5.0 Molar): -5%; Percent Growth ([8]; Log10 Concentration -6.0 Molar): 89%; Percent Growth ([8]; Log10 Concentration -7.0 Molar): 94%; Percent Growth ([8]; Log10 Concentration -8.0 Molar): 91%; GI50 ([9]; Homo sapiens): 2.13 µM; CC50 [9, 16]: 8.81 µM; Percent Growth ([9]; Log10 Concentration -4.0 Molar): -100%; Percent Growth ([9]; Log10 Concentration -5.0 Molar): -59%; Percent Growth ([9]; Log10 Concentration -6.0 Molar): 103%; Percent Growth ([9]; Log10 Concentration -7.0 Molar): 102%; Percent Growth ([9]; Log10 Concentration -8.0 Molar): 98%; GI50 ([10]; Homo sapiens, HT-29): 3.58 µM; CC50 ([10]; Homo sapiens, HT-29, read-out: LC50 (the source's name)): 34 µM; Percent Growth ([10]; Log10 Concentration -4.0 Molar): -100%; Percent Growth ([10]; Log10 Concentration -5.0 Molar): 7%; Percent Growth ([10]; Log10 Concentration -6.0 Molar): 104%; Percent Growth ([10]; Log10 Concentration -7.0 Molar): 117%; Percent Growth ([10]; Log10 Concentration -8.0 Molar): 100%; GI50 ([11]; Homo sapiens): 19.4 µM; CC50 [11, 16]: > 100 µM; Percent Growth ([11]; Log10 Concentration -4.0 Molar): 7%; Percent Growth ([11]; Log10 Concentration -5.0 Molar): 67%; Percent Growth ([11]; Log10 Concentration -6.0 Molar): 100%; Percent Growth ([11]; Log10 Concentration -7.0 Molar): 108%; Percent Growth ([11]; Log10 Concentration -8.0 Molar): 100%; GI50 ([12]; Homo sapiens): 1.87 µM; CC50 [12, 16]: 12.5 µM; Percent Growth ([12]; Log10 Concentration -4.0 Molar): -100%; Percent Growth ([12]; Log10 Concentration -5.0 Molar): -45%; Percent Growth ([12]; Log10 Concentration -6.0 Molar): 86%; Percent Growth ([12]; Log10 Concentration -7.0 Molar): 89%; Percent Growth ([12]; Log10 Concentration -8.0 Molar): 82%; GI50 ([13]; Homo sapiens): 3.04 µM; CC50 [13, 16]: 32 µM; Percent Growth ([13]; Log10 Concentration -4.0 Molar): -100%; Percent Growth ([13]; Log10 Concentration -5.0 Molar): 1%; Percent Growth ([13]; Log10 Concentration -6.0 Molar): 96%; Percent Growth ([13]; Log10 Concentration -7.0 Molar): 104%; Percent Growth ([13]; Log10 Concentration -8.0 Molar): 98%; GI50 ([14]; Homo sapiens): 3.18 µM; CC50 [14, 16]: 58.8 µM; Percent Growth ([14]; Log10 Concentration -4.0 Molar): -67%; Percent Growth ([14]; Log10 Concentration -5.0 Molar): 7%; Percent Growth ([14]; Log10 Concentration -6.0 Molar): 93%; Percent Growth ([14]; Log10 Concentration -7.0 Molar): 102%; Percent Growth ([14]; Log10 Concentration -8.0 Molar): 102%; GI50 ([15]; Homo sapiens, U-251): 1.88 µM; CC50 ([15]; Homo sapiens, U-251, read-out: LC50 (the source's name)): 7.51 µM; Percent Growth ([15]; Log10 Concentration -4.0 Molar): -100%; Percent Growth ([15]; Log10 Concentration -5.0 Molar): -71%; Percent Growth ([15]; Log10 Concentration -6.0 Molar): 96%; Percent Growth ([15]; Log10 Concentration -7.0 Molar): 105%; Percent Growth ([15]; Log10 Concentration -8.0 Molar): 95%
